Reference: US20230398130A1, “METHODS AND COMPOSITIONS FOR DIFFERENTIATING STEM CELLS” (Massachusetts Institute of Technology, priority 2020, published 2023)

Columns and labels:
ISC-enriched organoids [1] = assay: Primary screen, 384-well 2.5-D organoid differentiation (ENR+CD, 6 days): basal lysozyme secretion (LYZ.NS); assay type: cell-based, murine; conditions: for Dose.FC.LYZ.NS (log 2 fold change, basal lysozyme secretion): vs plate median; for Dose.FC.LYZ.NS: ENR+CD, 6 days, FC vs plate median; for Z.LYZ.NS: standard z score of FC
From the text: (§1) High-throughput screening.

ISC-enriched organoids [2] = assay: Primary screen, 384-well 2.5-D organoid differentiation (ENR+CD, 6 days, Target Selective Inhibitor Library, vs whole-plate median): ATP (CellTiter-Glo 3D, CTG); conditions: for Dose.FC.CTG (log 2 fold change, ATP): vs plate median; for Dose.FC.CTG: ENR+CD, 6 days, FC vs plate median; for Z.CTG: standard z score of FC
ISC-enriched organoids [3] = assay: Primary screen, 384-well 2.5-D organoid differentiation (ENR+CD, 6 days): carbachol-induced lysozyme secretion (LYZ.S); assay type: cell-based, murine; conditions: for Dose.FC.LYZ.S (log 2 fold change, carbachol-induced lysozyme secretion): vs plate median; for Dose.FC.LYZ.S: ENR+CD, 6 days, FC vs plate median
From the text: as §1

Row | Compound | Dose.FC.LYZ.NS (ISC-enriched organoids [1]; Dose 0.08 uM) | Z.LYZ.NS (ISC-enriched organoids [1]; Dose 0.08 uM) | Dose.FC.LYZ.NS (ISC-enriched organoids [1]; Dose 0.40 uM) | Z.LYZ.NS (ISC-enriched organoids [1]; Dose 0.40 uM) | Dose.FC.LYZ.NS (ISC-enriched organoids [1]; Dose 2.00 uM) | Z.LYZ.NS (ISC-enriched organoids [1]; Dose 2.00 uM) | Dose.FC.LYZ.NS (ISC-enriched organoids [1]; Dose 10.00 uM) | Z.LYZ.NS (ISC-enriched organoids [1]; Dose 10.00 uM) | Dose.FC.CTG (ISC-enriched organoids [2]; Dose 0.08 uM) | Z.CTG (ISC-enriched organoids [2]; Dose 0.08 uM) | Dose.FC.CTG (ISC-enriched organoids [2]; Dose 0.40 uM) | Z.CTG (ISC-enriched organoids [2]; Dose 0.40 uM) | Dose.FC.CTG (ISC-enriched organoids [2]; Dose 2.00 uM) | Z.CTG (ISC-enriched organoids [2]; Dose 2.00 uM) | Dose.FC.CTG (ISC-enriched organoids [2]; Dose 10.00 uM) | Z.CTG (ISC-enriched organoids [2]; Dose 10.00 uM) | Dose.FC.LYZ.S (ISC-enriched organoids [3]; Dose 0.08 uM) | Dose.FC.LYZ.S (ISC-enriched organoids [3]; Dose 0.40 uM) | Dose.FC.LYZ.S (ISC-enriched organoids [3]; Dose 2.00 uM) | Dose.FC.LYZ.S (ISC-enriched organoids [3]; Dose 10.00 uM) | other results
1 | Cc1cc(-c2ccc(CC(=O)Nc3ccc(-c4cccnc4)cc3)cc2)ccn1 [Wnt-C59 (C59)] | – | – | – | – | – | – | – | – | – | – | – | – | – | – | – | – | – | – | – | – | Z.LYZ.NS (standard z score) (ISC-enriched organoids [1]; dose 0.08 uM): −1.424; Dose.FC.LYZ.NS (log 2 fold change, basal lysozyme secretion) (ISC-enriched organoids [1]; dose 0.08 uM): −0.163; Z.LYZ.NS (standard z score) (ISC-enriched organoids [1]; dose 0.40 uM): −1.588; Dose.FC.LYZ.NS (log 2 fold change, basal lysozyme secretion) (ISC-enriched organoids [1]; dose 0.40 uM): −0.182; Z.LYZ.NS (standard z score) (ISC-enriched organoids [1]; dose 2.00 uM): −1.724; Dose.FC.LYZ.NS (log 2 fold change, basal lysozyme secretion) (ISC-enriched organoids [1]; dose 2.00 uM): −0.198; Z.LYZ.NS (standard z score) (ISC-enriched organoids [1]; dose 10.00 uM): −1.666; Dose.FC.LYZ.NS (log 2 fold change, basal lysozyme secretion) (ISC-enriched organoids [1]; dose 10.00 uM): −0.191; Z.CTG (standard z score) (ISC-enriched organoids [2]; dose 0.08 uM): −1.366; Dose.FC.CTG (log 2 fold change, ATP) (ISC-enriched organoids [2]; dose 0.08 uM): −0.572; Z.CTG (standard z score) (ISC-enriched organoids [2]; dose 0.40 uM): −1.461; Dose.FC.CTG (log 2 fold change, ATP) (ISC-enriched organoids [2]; dose 0.40 uM): −0.611; Z.CTG (standard z score) (ISC-enriched organoids [2]; dose 2.00 uM): −1.498; Dose.FC.CTG (log 2 fold change, ATP) (ISC-enriched organoids [2]; dose 2.00 uM): −0.627; Z.CTG (standard z score) (ISC-enriched organoids [2]; dose 10.00 uM): −1.465; Dose.FC.CTG (log 2 fold change, ATP) (ISC-enriched organoids [2]; dose 10.00 uM): −0.613; Dose.FC.LYZ.S (log 2 fold change, carbachol-induced lysozyme secretion) (ISC-enriched organoids [3]; dose 0.08 uM): −0.242; Dose.FC.LYZ.S (log 2 fold change, carbachol-induced lysozyme secretion) (ISC-enriched organoids [3]; dose 0.40 uM): −0.281; Dose.FC.LYZ.S (log 2 fold change, carbachol-induced lysozyme secretion) (ISC-enriched organoids [3]; dose 2.00 uM): −0.313; Dose.FC.LYZ.S (log 2 fold change, carbachol-induced lysozyme secretion) (ISC-enriched organoids [3]; dose 10.00 uM): −0.301
2 | CN[C@@H](C)C(=O)N[C@H](C(=O)N1CCC[C@H]1C(=O)Nc1snnc1-c1ccccc1)C1CCCCC1 [GDC-0152] | −0.002 log 2 fold change | −0.013 | −0.020 log 2 fold change | −0.176 | 0.083 log 2 fold change | 0.724 | 0.103 log 2 fold change | 0.900 | 0.151 log 2 fold change | 0.361 | 0.158 log 2 fold change | 0.377 | 0.003 log 2 fold change | 0.008 | 0.241 log 2 fold change | 0.575 | −0.020 log 2 fold change | −0.036 log 2 fold change | −0.057 log 2 fold change | −0.009 log 2 fold change | –
3 | CCOC(=O)c1cncn1[C@H](C)c1ccccc1 [Etomidate] | −0.008 log 2 fold change | −0.065 | 0.037 log 2 fold change | 0.318 | 0.015 log 2 fold change | 0.131 | −0.001 log 2 fold change | −0.010 | 0.084 log 2 fold change | 0.201 | 0.006 log 2 fold change | 0.014 | 0.163 log 2 fold change | 0.389 | 0.039 log 2 fold change | 0.094 | 0.053 log 2 fold change | 0.048 log 2 fold change | 0.054 log 2 fold change | −0.008 log 2 fold change | –
4 | Cn1cc(C2=C(c3cn(C4CCN(Cc5ccccn5)CC4)c4ccccc34)C(=O)NC2=O)c2ccccc21 [Enzastaurin (LY317615)] | 0.085 log 2 fold change | 0.744 | 0.131 log 2 fold change | 1.143 | 0.053 log 2 fold change | 0.458 | −0.116 log 2 fold change | −1.012 | 0.236 log 2 fold change | 0.565 | 0.475 log 2 fold change | 1.135 | 0.251 log 2 fold change | 0.600 | −0.081 log 2 fold change | −0.194 | 0.109 log 2 fold change | 0.251 log 2 fold change | 0.053 log 2 fold change | −0.226 log 2 fold change | –
